# Values joined by “and” are separate entries in the source; they are usually repeats but may differ in a detail not shown here. Equal entries are not always repeated.
# Legend:
# DNA Ligase IV/XRCC4 = molecular target: T1, DNA Ligase IV/XRCC4 (Homo sapiens, UniProt P49917); experiment: Inhibition of end joining by purified DNA Ligase IV/XRCC4; format: biochemical; details: for inhibition at 50 µM: Ligase IV; for Inhibition of end joining compared with control: 200 μM, purified Ligase IV/XRCC4; for Concentration from which inhibition of end joining was seen: dose titration with Ligase IV
# T1 construct: made in house; host or cells: bacteria
# T1 sequence (P49917 whole entry): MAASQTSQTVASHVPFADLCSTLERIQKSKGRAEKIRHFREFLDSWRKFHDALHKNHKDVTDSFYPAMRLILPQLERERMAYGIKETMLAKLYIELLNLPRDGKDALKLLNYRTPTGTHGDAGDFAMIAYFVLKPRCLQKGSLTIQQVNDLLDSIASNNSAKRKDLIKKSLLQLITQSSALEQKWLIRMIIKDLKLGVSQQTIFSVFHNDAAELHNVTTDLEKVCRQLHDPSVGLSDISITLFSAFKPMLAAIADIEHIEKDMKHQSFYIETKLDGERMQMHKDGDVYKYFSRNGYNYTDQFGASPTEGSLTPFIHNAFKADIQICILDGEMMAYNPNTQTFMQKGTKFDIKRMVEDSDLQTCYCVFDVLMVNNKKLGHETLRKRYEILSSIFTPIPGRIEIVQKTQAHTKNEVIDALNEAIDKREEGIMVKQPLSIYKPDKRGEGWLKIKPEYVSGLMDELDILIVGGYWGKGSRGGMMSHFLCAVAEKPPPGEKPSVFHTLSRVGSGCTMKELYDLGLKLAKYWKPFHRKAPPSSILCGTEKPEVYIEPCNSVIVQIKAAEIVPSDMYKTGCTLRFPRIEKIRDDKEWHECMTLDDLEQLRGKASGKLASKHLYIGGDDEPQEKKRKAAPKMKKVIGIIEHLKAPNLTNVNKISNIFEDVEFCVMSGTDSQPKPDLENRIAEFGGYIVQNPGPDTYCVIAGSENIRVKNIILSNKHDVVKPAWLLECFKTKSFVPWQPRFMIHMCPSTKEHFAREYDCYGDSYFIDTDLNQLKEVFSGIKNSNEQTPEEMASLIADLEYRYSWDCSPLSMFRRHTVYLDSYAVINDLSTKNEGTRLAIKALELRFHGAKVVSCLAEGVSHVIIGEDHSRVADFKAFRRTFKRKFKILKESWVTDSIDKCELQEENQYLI
# T1 sequence (Q13426 whole entry partner): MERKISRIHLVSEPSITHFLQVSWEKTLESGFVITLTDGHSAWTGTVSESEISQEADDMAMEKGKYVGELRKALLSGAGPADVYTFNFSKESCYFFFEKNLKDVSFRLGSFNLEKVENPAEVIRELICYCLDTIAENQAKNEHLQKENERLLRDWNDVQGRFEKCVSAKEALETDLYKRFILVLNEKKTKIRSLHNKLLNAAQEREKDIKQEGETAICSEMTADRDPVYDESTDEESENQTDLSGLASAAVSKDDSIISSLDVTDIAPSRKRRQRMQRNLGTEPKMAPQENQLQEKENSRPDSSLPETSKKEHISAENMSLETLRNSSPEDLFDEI
# Method: The compounds of Formula I were evaluated for their specific inhibition activity towards enzyme DNA Ligase IV. DNA Ligase IV/XRCC4 was purified from bacteria using Ni-NTA column (FIG. 2A), and used for evaluation of inhibition of end joining of the compounds (01-41) at 200 μM (FIGS. 2B, C and D). The compounds were incubated with purified Ligase IV/XRCC4 in suitable NHEJ buffer at 25° C. for 30 min, followed by addition of radiolabeled DNA, and further incubation for 1 h at 25° C. Products were purified using phenol: chloroform and run on denaturing PAGE.
# Effects of these compounds on NHEJ and Ligase IV mediated joining were evaluated (FIG. 4A-K). The reactions were terminated by EDTA (10 mM), products were purified using phenol/chloroform, precipitated with chilled ethanol and glycogen, and resolved on 8% denaturing PAGE. The gel was dried, exposed, and signal was detected using phosphor Imager FLA9000 (Fuji, Japan), and quantified in MultiGauge software expressed as Photo Stimulated Luminescence Units (PSLU). Inhibition of end joining was reported at 200 μM and 100 μM, respectively for SCR116 and SCR132 (FIGS. 4A, B, C and D), with >50% inhibition at 200 and 100 μM concentrations, respectively. […] FIG. 4K depict the purification profile of Ligase IV and XRCC4. Further FIGS. 4L-M represent inhibition of end joining catalysed by (FIG. 4L) purified Ligase III/XRCCI in presence of SCR116 and SCR132 (50, 100, 200, 500, 1000 μM) and (FIG. 4M) by purified Ligase I in presence of increasing concentrations of SCR116 and SCR132 (10, 50, 100, 200, 500, 1000 μM).
# HCT116 = experiment: Cytotoxicity in HCT116; format: cell-based; details: Homo sapiens, HCT-116; Table 2; read-out: IC50 in cancer cell lines, HCT116
# Method: (§1) Ligase IV specificity of the compounds of the present invention inside the cells were also determined using Ligase IV knock out (KO) cell line N114 compared to the wild type Nalm6 (Table 2, FIGS. 5C, D, E and F). […] Table 1 showing IC50 of SCR7 derivatives in cancer cell lines Nalm6 and HeLa. IC50 was calculated using GraphPad Prism software from the percentage of viable cells following treatment with the compounds at 48 h. Table 2 showing IC50 of SCR116 and SCR132 in a panel of 16 cancer cell lines.
# [1] = system: Erlich Ascites Carcinoma (EAC) tumor; experiment: Mice allograft model, Erlich Ascites Carcinoma (EAC); format: in vivo; details: for Tumor progression: intraperitoneal; for Tumor progression / Tumor load: alternate days; for Tumor load: oral, 8 doses, pilot
# Method: The compounds of the present disclosure were evaluated for the anti-cancer efficacy starting from lower concentrations using Mice allograft model. Mice allograft model was developed by injecting Erlich Ascites Carcinoma (EAC) cell lines in the thigh region of the mice followed by treatment with the compounds via intraperitoneal and oral routes on alternate days (FIG. 9C).
# The effect of oral dose of the compounds of the present disclosure on mice Erlich Ascites Carcinoma (EAC) and Dalton's Lymphoma (DLA) tumors were also evaluated (FIGS. 10A-F).
# [2] = mouse, in vivo, po
# Method: The bioavailability of the compounds of the present disclosure were analysed in mice serum at different time points (0.5, 1, 2, 4, 6, 8, 10, 12, 24 and 48 h) by HPLC at 232 nm wavelength (FIGS. 10N-P).
# [3] = system: V(D)J recombination in Nalm6 (pGG49); experiment: V(D)J recombination in Nalm6 using pGG49; format: cell-based; details: for Fold reduction in recombination efficiency: vs vehicle control
# Method: Evaluation of efficiency of V(D)J recombination following treatment with SCR116 and SCR132 was carried out as depicted in FIGS. 6(A-C). Tables 4 and 5 summarize the effect of SCR116 (1 and 2 μM) and SCR132 (0.5 and 1 μM) on V(D)J recombination in Nalm6 using pGG49 and pGG51, respectively.
# SUDHL8 = experiment: Cytotoxicity in SUDHL8; format: cell-based; details: Homo sapiens, SU-DHL-8; Table 2; read-out: IC50 in cancer cell lines, SUDHL8
# Method: as §1
# 53BP1 foci in Nalm6 = 53BP1 foci in Nalm6 cells; format: cell-based; details: 24 h, SCR116 2, 5 μM, SCR132 1, 2 μM
# Method: FIG. 8(A-B) depicts accumulation of DSBs inside cells following treatment with the compounds. A. Representative images for HeLa cells subjected to neutral comet assay following treatment with SCR116 and SCR132 for 24 h. […] FIG. 8C, D are representative images for Nalm6 cells (C) and N114 cells (D) following treatment with SCR116 and SCR132 for 24 h. and FIG. 8E, F are scatter plot depicting quantification of percentage of 53BP1 foci treated with SCR116 (2, 5 μM) and SCR132 (1, 2 μM) in Nalm6 and N114.
# SCC131 derived xenograft = experiment: Mouse xenograft model, SCC131; format: in vivo; details: oral cancer SCC131 xenograft; 8 oral doses
# Molt4 = experiment: Cytotoxicity in Molt4; format: cell-based, human; details: Homo sapiens, MOLT-4; Table 2; read-out: IC50 in cancer cell lines, Molt4
# Method: as §1
# CEM = experiment: Cytotoxicity in CEM; format: cell-based; details: Homo sapiens, CCRF-CEM; Table 2; read-out: IC50 in cancer cell lines, CEM
# Method: as §1
Structure (SMILES),inhibition at 50 µM (DNA Ligase IV/XRCC4) [%],Inhibition of end joining compared with control (DNA Ligase IV/XRCC4),Concentration from which inhibition of end joining was seen (DNA Ligase IV/XRCC4) [µM],IC50 (HCT116) [µM],Course of serum level [2],Recombination efficiency (CA/A) ×100 ([3]; 1 μM),Fold reduction in recombination efficiency ([3]; 1 μM) [fold],IC50 (SUDHL8) [µM],53BP1 foci (53BP1 foci in Nalm6),Tumor volume (SCC131 derived xenograft),IC50 (Molt4) [µM],IC50 (CEM) [µM],further results
"Nc1nc(S)nc(O)c1/N=C/c1sc(Cl)nc1Cl [Compound 32, (E)-6-amino-5-(((2,4-dichlorothiazol-5-yl)methylene)amino)-2-mercaptopyrimidin-4-ol]",> 50,significant inhibition of end joining,10,2,became stabilized between 4 h and 6 h,0.009,31.1,0.81,significant increase in 53BP1 foci,significant reduction in tumor volume,1.88,3.83,Tumor progression ([1]; 5 mg/kg): inhibition of tumor progression; Tumor load ([1]; 5 and 15 mg/kg): reduced tumor load; Tumor size ([1]; selected oral dose 15 mg/kg): significant reduction in tumor size; Recombination efficiency (CA/A) ×100 ([3]; 0.5 μM): 0.030; Fold reduction in recombination efficiency ([3]; 0.5 μM): 9.3 fold
"Nc1nc(S)nc(O)c1/N=C/c1ccc([N+](=O)[O-])s1 [Compound 16, (E)-6-amino-2-mercapto-5-(((5-nitrothiophen-2-yl)methylene)amino)pyrimidin-4-ol]",> 50,significant inhibition of end joining,5,5.2,continued to increase till 10 h,0.050,5.2,0.685,significant increase in 53BP1 foci,significant reduction in tumor volume,4.89,5.77,"Tumor progression ([1]; 10 mg/kg): inhibition of tumor progression; Tumor load ([1]; 10 and 30 mg/kg): reduced tumor load; Tumor size ([1]; selected oral dose 10 mg/kg): significant reduction in tumor size; Recombination efficiency (CA/A) ×100 ([3]; 2 μM): 0.013; Fold reduction in recombination efficiency ([3]; 2 μM, listed as SCR116): 20 fold and 20.0 fold"

# Source: patent US20250100977A1, “MERCAPTOPYRIMIDINE COMPOUNDS THAT INHIBIT NONHOMOLOGOUS END JOINING AND METHODS THEREOF” (INDIAN INSTITUTE OF SCIENCE, priority 2021, published 2025)
